Literature values, collected in patent US20250032488A1, “METHODS OF TREATMENT USING LOU064” (NOVARTIS AG, priority 2021, published 2025).
“And” between values parts separate entries of the source, which are not always exact repeats. Equal entries are not always repeated. Where two headings read alike, the source gives them in different places.

Columns and labels:
[1] = human, in vivo; cited from earlier work
[2] = 75 mg b.i.d., Phase II; cited from earlier work
[3] = higher dose treatment arms, phase IIa; cited from earlier work

For C=CC(=O)N1CCC[C@@H](n2c(=O)n(-c3ccc(Oc4ccccc4)cc3)c3c(N)nccc32)C1 [tolebrutinib], the Dose-limiting side effect [1] is given as “dose-limiting diarrhea”.

For C=CC(=O)N1CCC(CNc2ncnc(N)c2-c2ccc(Oc3ccccc3)cc2)CC1 [evobrutinib], the Dose-limiting side effect [2] is listed as “dose-limiting liver enzyme elevations”.

For C[C@H]1CN(C2COC2)CCN1c1ccc(Nc2cc(-c3ccnc(N4CCn5c(cc6c5CC(C)(C)C6)C4=O)c3CO)cn(C)c2=O)nc1 [fenebrutinib], the “Subjects with transient grade 3 elevations of ALT and/or AST” value [3] is given as 8.3% and 6.3%.
